According to the supplement of paper PMC10307832:

Columns and labels:
Experiment in all cases: relative viability (nuclei count vs DMSO), 5 days (fraction); higher = more cells survive
[1] = compound: O=C(c1cc(Cc2n[nH]c(=O)c3ccccc23)ccc1F)N1CCN(C(=O)C2CC2)CC1 [Olaparib] + C[C@@H](Oc1cc(-c2cnn(C3CCNCC3)c2)cnc1N)c1c(Cl)ccc(F)c1Cl [Crizotinib] (partner 1 µM)
How it was run: (§1)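 Lung cancer cell lines in 1536-well plates were dosed by pin tool the day after seeding, either with one drug alone or with a fixed anchor-drug dose plus five library-drug doses (not always all listed) in √10 steps. After 5 days, cells were fixed and their nuclei stained in one step (final 0.05% Triton X-100, 1% formaldehyde, 1 ug/ml Hoechst), then counted on 4× images. Relative viability is the nuclei count in treated wells divided by that in vehicle wells. Values are medians of duplicate plates.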

[2] = compound: O=C(c1cc(Cc2n[nH]c(=O)c3ccccc23)ccc1F)N1CCN(C(=O)C2CC2)CC1 [Olaparib] + CS(=O)(=O)CCNCc1ccc(-c2ccc3ncnc(Nc4ccc(OCc5cccc(F)c5)c(Cl)c4)c3c2)o1 [Lapatinib] (partner 2 µM)
How it was run: as §1

[3] = compound: O=C(c1cc(Cc2n[nH]c(=O)c3ccccc23)ccc1F)N1CCN(C(=O)C2CC2)CC1 [Olaparib] + O=C(CCCCCCC(=O)Nc1ccccc1)NO [Vorinostat] (partner 1 µM)
How it was run: as §1

[4] = compound: C[C@@H](Oc1cc(-c2cnn(C3CCNCC3)c2)cnc1N)c1c(Cl)ccc(F)c1Cl [Crizotinib] + Cc1nc(Nc2ncc(C(=O)Nc3c(C)cccc3Cl)s2)cc(N2CCN(CCO)CC2)n1 [Dasatinib] (partner 0.075 µM)
How it was run: as §1

| Cell Line | relative viability ([1]; first compound 0.08 µM) | relative viability ([1]; first compound 0.253 µM) | relative viability ([1]; first compound 2.53 µM) | relative viability ([1]; first compound 8 µM) | relative viability ([2]; first compound 0.08 µM) | relative viability ([2]; first compound 0.253 µM) | relative viability ([2]; first compound 2.53 µM) | relative viability ([2]; first compound 8 µM) | relative viability ([3]; first compound 0.08 µM) | relative viability ([3]; first compound 0.253 µM) | relative viability ([3]; first compound 2.53 µM) | relative viability ([3]; first compound 8 µM) | relative viability ([4]; first compound 0.01 µM) | relative viability ([4]; first compound 0.03162 µM) | relative viability ([4]; first compound 0.1 µM) | relative viability ([4]; first compound 0.3162 µM) | relative viability ([4]; first compound 1 µM) |
| --- | --- | --- | --- | --- | --- | --- | --- | --- | --- | --- | --- | --- | --- | --- | --- | --- | --- |
| NCI-H1650 | 1.13 | 0.864 | 1.15 | 0.965 | 1.04 | 0.756 | 0.796 | 0.749 | 0.531 | 0.522 | 0.671 | 0.476 | 0.273 | 0.299 | 0.311 | 0.362 | 0.299 |
| COR-L23 | 0.852 | 0.58 | 0.515 | 0.274 | 1.26 | 0.815 | 0.739 | 0.438 | 0.508 | 0.43 | 0.228 | 0.239 | 0.508 | 0.424 | 0.519 | 0.437 | 0.533 |
| NCI-H322M | 1.03 | 0.803 | 0.994 | 0.902 | 0.576 | 0.597 | 0.599 | 0.491 | 1.01 | 0.854 | 0.942 | 0.831 | 0.23 | 0.251 | 0.232 | 0.262 | 0.263 |
| NCI-H2085 | 0.911 | 0.657 | 0.74 | 0.77 | 0.968 | 0.711 | 0.737 | 0.618 | 0.844 | 0.703 | 0.749 | 0.616 | 0.209 | 0.232 | 0.228 | 0.282 | 0.28 |
| NCI-H2023 | 0.789 | 0.661 | 0.658 | 0.574 | 1.08 | 0.755 | 0.763 | 0.691 | 0.734 | 0.531 | 0.507 | 0.315 | 0.532 | 0.537 | 0.449 | 0.258 | 0.389 |
| LU99A | 0.522 | 0.495 | 0.427 | 0.42 | 1.01 | 0.839 | 0.643 | 0.49 | 0.463 | 0.397 | 0.353 | 0.23 | 0.434 | 0.565 | 0.501 | 0.55 | 0.566 |
| NCI-H2228 | 0.603 | 0.437 | 0.473 | 0.362 | 1.28 | 0.879 | 0.835 | 0.765 | 0.587 | 0.541 | 0.742 | 0.449 | 0.459 | 0.566 | 0.575 | 0.26 | 0.112 |
| HCC-15 | 0.96 | 0.75 | 0.851 | 0.69 | 0.999 | 0.752 | 0.808 | 0.765 | 0.956 | 0.819 | 0.83 | 0.687 | 0.557 | 0.573 | 0.639 | – | 0.562 |
| RERF-LC-KJ | 0.811 | 0.775 | 0.911 | 0.755 | 0.872 | 0.831 | 0.971 | 0.872 | 0.79 | 0.644 | 0.748 | 0.633 | 0.751 | 0.817 | 0.751 | 0.81 | 0.691 |
| NCI-H647 | 1.23 | 0.914 | 0.923 | 0.675 | 1.43 | 0.984 | 1.13 | 0.59 | 0.585 | 0.504 | 0.6 | 0.271 | 0.148 | 0.172 | 0.131 | 0.191 | 0.17 |
| 201T | 1.01 | 1 | 1.01 | 0.973 | 1.06 | 0.973 | 0.939 | 1 | 1.07 | 0.912 | 0.954 | 0.947 | 0.599 | 0.628 | 0.614 | 0.548 | 0.569 |
| HCC-366 | 0.517 | 0.473 | 0.238 | 0.145 | 1.06 | 0.884 | 0.77 | 0.417 | 0.352 | 0.273 | 0.191 | 0.101 | 0.592 | 0.649 | 0.618 | – | 0.458 |
| HOP-62 | 1.07 | 0.902 | 0.792 | 0.631 | 1.22 | 1.08 | 0.741 | 0.538 | 0.757 | 0.575 | 0.675 | 0.379 | 0.581 | 0.637 | 0.613 | 0.663 | 0.716 |
| NCI-H1734 | 0.691 | 0.681 | 0.647 | 0.553 | 1.1 | 0.974 | 0.933 | 0.749 | 0.868 | 0.74 | 0.715 | 0.572 | 0.49 | 0.455 | 0.397 | – | 0.555 |
| NCI-H2405 | 0.948 | 0.83 | 0.769 | 0.809 | 1.41 | 1.06 | 0.924 | 0.972 | 1.28 | 0.957 | 0.997 | 0.926 | 0.244 | 0.237 | 0.192 | 0.217 | 0.196 |
| NCI-H727 | 0.934 | 0.737 | 0.671 | 0.48 | 0.945 | 0.778 | 0.651 | 0.465 | 1.19 | 1.08 | 0.983 | 0.981 | – | 0.398 | 0.348 | – | 0.341 |
| SW 1573 | 0.788 | 0.768 | 0.601 | 0.57 | 1.16 | 1 | 1 | 0.689 | 1.08 | 0.693 | 0.711 | 0.489 | 0.352 | 0.389 | 0.51 | 0.449 | 0.454 |
| A-427 | 0.958 | 0.882 | 0.705 | 0.71 | 1.13 | 0.931 | 0.879 | 1.02 | 0.911 | 0.863 | 0.871 | 0.76 | 0.696 | 0.765 | 0.687 | – | 0.719 |
